Where “and” joins values, the source holds several entries; their conditions need not be identical. Identical values can stand only once.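 Growth conditions: 96-well plates. Treatment: test compound, 48 hours, 5 concentrations. Analysis: linear interpolation between bracketing concentrations; unreached endpoints set to highest concentration. GI50 = concentration required for 50% inhibition of growth. TGI marks complete inhibition of growth.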
Tests used:
Assay in all cases: NCI-60 cell line screen, 48 h
OVCAR-3 ovarian = tested on: OVCAR-3 ovarian
RXF 393 renal = tested on: RXF 393 renal
HT29 colon = tested on: HT29 colon
786-0 renal = tested on: 786-0 renal
OVCAR-5 ovarian = tested on: OVCAR-5 ovarian
SF-268 CNS = tested on: SF-268 CNS
MDA-MB-435 = tested on: MDA-MB-435
A498 renal = tested on: A498 renal
TK-10 renal = tested on: TK-10 renal
SK-OV-3 ovarian = tested on: SK-OV-3 ovarian
SW-620 colon = tested on: SW-620 colon
NCI-H226 lung = tested on: NCI-H226 lung
MCF7 breast = tested on: MCF7 breast
BT-549 breast = tested on: BT-549 breast
NCI-H23 lung = tested on: NCI-H23 lung
EKVX NSCLC = tested on: EKVX NSCLC
U251 CNS = tested on: U251 CNS
HCT-15 colon = tested on: HCT-15 colon
T-47D breast = tested on: T-47D breast
HCT-116 colon = tested on: HCT-116 colon
UO-31 renal = tested on: UO-31 renal
OVCAR-8 ovarian = tested on: OVCAR-8 ovarian
MDA-MB-231 breast = tested on: MDA-MB-231 breast
HOP-62 NSCLC = tested on: HOP-62 NSCLC
NCI-H522 lung = tested on: NCI-H522 lung
SNB-19 CNS = tested on: SNB-19 CNS
SK-MEL-28 melanoma = tested on: SK-MEL-28 melanoma
SNB-75 CNS = tested on: SNB-75 CNS
LOX IMVI melanoma = tested on: LOX IMVI melanoma
CAKI-1 renal = tested on: CAKI-1 renal
HCC-2998 colon = tested on: HCC-2998 colon
SF-295 CNS = tested on: SF-295 CNS
SF-539 CNS = tested on: SF-539 CNS
OVCAR-4 ovarian = tested on: OVCAR-4 ovarian
SN12C renal = tested on: SN12C renal
KM12 colon = tested on: KM12 colon
MALME-3M melanoma = tested on: MALME-3M melanoma
UACC-62 melanoma = tested on: UACC-62 melanoma
UACC-257 melanoma = tested on: UACC-257 melanoma
NCI/ADR-RES ovarian = tested on: NCI/ADR-RES ovarian
NCI-H460 lung = tested on: NCI-H460 lung
COLO 205 colon = tested on: COLO 205 colon
SK-MEL-5 melanoma = tested on: SK-MEL-5 melanoma
SK-MEL-2 melanoma = tested on: SK-MEL-2 melanoma
A549 NSCLC = tested on: A549 NSCLC
ACHN renal = tested on: ACHN renal
M14 melanoma = tested on: M14 melanoma
HS 578T breast = tested on: HS 578T breast
DU-145 prostate = tested on: DU-145 prostate
PC-3 prostate = tested on: PC-3 prostate
HOP-92 NSCLC = tested on: HOP-92 NSCLC
RPMI-8226 leukemia = tested on: RPMI-8226 leukemia
IGROV1 ovarian = tested on: IGROV1 ovarian
HL-60(TB) leukemia = tested on: HL-60(TB) leukemia
MOLT-4 leukemia = tested on: MOLT-4 leukemia

## COc1ccc2c(c1OC)C(=O)OC2C1c2c(c([N+](=O)[O-])c3c(c2OC)OCO3)CCN1C (stereo not drawn)
OVCAR-3 ovarian
  GI50: > 100 µM
  TGI: > 100 µM
RXF 393 renal
  GI50: > 100 µM
  TGI: > 100 µM
HT29 colon
  GI50: 28.7 µM
  TGI: > 100 µM
786-0 renal
  GI50: > 100 µM
  TGI: > 100 µM
OVCAR-5 ovarian
  GI50: > 100 µM
  TGI: > 100 µM
SF-268 CNS
  GI50: > 100 µM
  TGI: > 100 µM
MDA-MB-435
  GI50: > 100 µM
  TGI: > 100 µM
A498 renal
  GI50: > 100 µM
  TGI: > 100 µM
TK-10 renal
  GI50: > 100 µM
  TGI: > 100 µM
SK-OV-3 ovarian
  GI50: > 100 µM
  TGI: > 100 µM
SW-620 colon
  GI50: > 100 µM
  TGI: > 100 µM
NCI-H226 lung
  GI50: > 100 µM
  TGI: > 100 µM
MCF7 breast
  GI50: > 100 µM
  TGI: > 100 µM
BT-549 breast
  GI50: > 100 µM
  TGI: > 100 µM
NCI-H23 lung
  GI50: > 100 µM
  TGI: > 100 µM
EKVX NSCLC
  GI50: > 100 µM
  TGI: > 100 µM
U251 CNS
  GI50: > 100 µM
  TGI: > 100 µM
HCT-15 colon
  GI50: > 100 µM
  TGI: > 100 µM
T-47D breast
  GI50: 54.1 µM
  TGI: > 100 µM
HCT-116 colon
  GI50: > 100 µM
  TGI: > 100 µM
UO-31 renal
  GI50: > 100 µM
  TGI: > 100 µM
OVCAR-8 ovarian
  GI50: > 100 µM
  TGI: > 100 µM
MDA-MB-231 breast
  GI50: > 100 µM
  TGI: > 100 µM
HOP-62 NSCLC
  GI50: > 100 µM
  TGI: > 100 µM
NCI-H522 lung
  GI50: > 100 µM
  TGI: > 100 µM
SNB-19 CNS
  GI50: > 100 µM
  TGI: > 100 µM
SK-MEL-28 melanoma
  GI50: > 100 µM
  TGI: > 100 µM
SNB-75 CNS
  GI50: > 100 µM
  TGI: > 100 µM
LOX IMVI melanoma
  GI50: > 100 µM
  TGI: > 100 µM
CAKI-1 renal
  GI50: > 100 µM
  TGI: > 100 µM
HCC-2998 colon
  GI50: 27.8 µM
  TGI: > 100 µM
SF-295 CNS
  GI50: > 100 µM
  TGI: > 100 µM
SF-539 CNS
  GI50: > 100 µM
  TGI: > 100 µM
OVCAR-4 ovarian
  GI50: > 100 µM
  TGI: > 100 µM
SN12C renal
  GI50: > 100 µM
  TGI: > 100 µM
KM12 colon
  GI50: > 100 µM
  TGI: > 100 µM
MALME-3M melanoma
  GI50: > 100 µM
  TGI: > 100 µM
UACC-62 melanoma
  GI50: > 100 µM
  TGI: > 100 µM
UACC-257 melanoma
  GI50: > 100 µM
  TGI: > 100 µM
NCI/ADR-RES ovarian
  GI50: > 100 µM
  TGI: > 100 µM
NCI-H460 lung
  GI50: > 100 µM
  TGI: > 100 µM
COLO 205 colon
  GI50: 66.6 µM
  TGI: > 100 µM
SK-MEL-5 melanoma
  GI50: > 100 µM
  TGI: > 100 µM
SK-MEL-2 melanoma
  GI50: > 100 µM
  TGI: > 100 µM
A549 NSCLC
  GI50: > 100 µM
  TGI: > 100 µM
ACHN renal
  GI50: > 100 µM
  TGI: > 100 µM
M14 melanoma
  GI50: > 100 µM
  TGI: > 100 µM
HS 578T breast
  GI50: > 100 µM
  TGI: > 100 µM
DU-145 prostate
  GI50: > 100 µM
  TGI: > 100 µM

## O=c1[nH]cnc2c(C3NC(CO)C(O)C3O)c[nH]c12 (stereo not drawn)
OVCAR-3 ovarian
  GI50: > 100 µM
  TGI: > 100 µM
RXF 393 renal
  GI50: > 100 µM
  TGI: > 100 µM
HT29 colon
  GI50: > 100 µM
  TGI: > 100 µM
786-0 renal
  GI50: > 100 µM
  TGI: > 100 µM
OVCAR-5 ovarian
  GI50: > 100 µM
  TGI: > 100 µM
SF-268 CNS
  GI50: > 100 µM
  TGI: > 100 µM
MDA-MB-435
  GI50: > 100 µM
  TGI: > 100 µM
A498 renal
  GI50: > 100 µM
  TGI: > 100 µM
TK-10 renal
  GI50: > 100 µM
  TGI: > 100 µM
PC-3 prostate
  GI50: > 100 µM
  TGI: > 100 µM
SK-OV-3 ovarian
  GI50: > 100 µM
  TGI: > 100 µM
SW-620 colon
  GI50: > 100 µM
  TGI: > 100 µM
HOP-92 NSCLC
  GI50: > 100 µM
  TGI: > 100 µM
NCI-H226 lung
  GI50: > 100 µM
  TGI: > 100 µM
MCF7 breast
  GI50: > 100 µM
  TGI: > 100 µM
BT-549 breast
  GI50: > 100 µM
  TGI: > 100 µM
NCI-H23 lung
  GI50: > 100 µM
  TGI: > 100 µM
EKVX NSCLC
  GI50: > 100 µM
  TGI: > 100 µM
U251 CNS
  GI50: > 100 µM
  TGI: > 100 µM
HCT-15 colon
  GI50: > 100 µM
  TGI: > 100 µM
T-47D breast
  GI50: > 100 µM
  TGI: > 100 µM
RPMI-8226 leukemia
  GI50: > 100 µM
  TGI: > 100 µM
HCT-116 colon
  GI50: > 100 µM
  TGI: > 100 µM
UO-31 renal
  GI50: > 100 µM
  TGI: > 100 µM
OVCAR-8 ovarian
  GI50: > 100 µM
  TGI: > 100 µM
MDA-MB-231 breast
  GI50: > 100 µM
  TGI: > 100 µM
HOP-62 NSCLC
  GI50: > 100 µM
  TGI: > 100 µM
NCI-H522 lung
  GI50: > 100 µM
  TGI: > 100 µM
SNB-19 CNS
  GI50: > 100 µM
  TGI: > 100 µM
SK-MEL-28 melanoma
  GI50: > 100 µM
  TGI: > 100 µM
SNB-75 CNS
  GI50: > 100 µM
  TGI: > 100 µM
LOX IMVI melanoma
  GI50: > 100 µM
  TGI: > 100 µM
CAKI-1 renal
  GI50: > 100 µM
  TGI: > 100 µM
HCC-2998 colon
  GI50: > 100 µM
  TGI: > 100 µM
SF-295 CNS
  GI50: > 100 µM
  TGI: > 100 µM
SF-539 CNS
  GI50: > 100 µM
  TGI: > 100 µM
OVCAR-4 ovarian
  GI50: > 100 µM
  TGI: > 100 µM
SN12C renal
  GI50: > 100 µM
  TGI: > 100 µM
KM12 colon
  GI50: > 100 µM
  TGI: > 100 µM
MALME-3M melanoma
  GI50: > 100 µM
  TGI: > 100 µM
UACC-62 melanoma
  GI50: > 100 µM
  TGI: > 100 µM
UACC-257 melanoma
  GI50: > 100 µM
  TGI: > 100 µM
NCI/ADR-RES ovarian
  GI50: > 100 µM
  TGI: > 100 µM
NCI-H460 lung
  GI50: > 100 µM
  TGI: > 100 µM
COLO 205 colon
  GI50: > 100 µM
  TGI: > 100 µM
SK-MEL-5 melanoma
  GI50: > 100 µM
  TGI: > 100 µM
A549 NSCLC
  GI50: > 100 µM
  TGI: > 100 µM
ACHN renal
  GI50: > 100 µM
  TGI: > 100 µM
IGROV1 ovarian
  GI50: > 100 µM
  TGI: > 100 µM
M14 melanoma
  GI50: > 100 µM
  TGI: > 100 µM
HS 578T breast
  GI50: > 100 µM
  TGI: > 100 µM
DU-145 prostate
  GI50: > 100 µM
  TGI: > 100 µM

## CC(=O)c1c(-c2cccc3ccccc23)c(C#N)c(=S)n(C2OC(CO)C(O)C(O)C2O)c1-c1ccccc1 (stereo not drawn)
HOP-92 NSCLC
  TGI: > 100 µM
EKVX NSCLC
  TGI: > 100 µM
UO-31 renal
  GI50: 5.09 µM and 1.59 µM
  TGI: 23.8 µM and 3.54 µM

## OC(c1cc2cc(Cl)c(Cl)cc2c2cc(C(F)(F)F)ccc12)C1CCCCN1 (stereo not drawn)
OVCAR-5 ovarian
  GI50: 1.61 µM
  TGI: 3.1 µM
A498 renal
  GI50: 1.36 µM
  TGI: 2.69 µM
U251 CNS
  GI50: 1.72 µM
  TGI: 3.21 µM
UO-31 renal
  GI50: 1.52 µM
  TGI: 3.16 µM
OVCAR-8 ovarian
  GI50: 1.67 µM
  TGI: 3.21 µM
CAKI-1 renal
  GI50: 2 µM
  TGI: 4.32 µM
HL-60(TB) leukemia
  GI50: 2.28 µM
  TGI: 4.07 µM
MOLT-4 leukemia
  GI50: 1.59 µM
  TGI: 3.32 µM
A549 NSCLC
  GI50: 1.68 µM
  TGI: 3.18 µM
HS 578T breast
  GI50: 1.54 µM
  TGI: 3.27 µM
DU-145 prostate
  GI50: 1.94 µM
  TGI: 3.36 µM

From PubChem BioAssay (NCI)
